The test system of test [1] is IL-2 production. Nature of the test: Human PBMC CD3/CD28-induced IL-2 production inhibition test. It is filed as cell-based. Conditions: 48 h, read-out: IC50 value, IL-2 production inhibition. How it is done:
PBMC (peripheral blood mononuclear cell) was separated and collected by using Ficoll-Paque (manufactured by GE Healthcare Japan Corp.) from blood collected from a healthy human adult in the presence of heparin. A RPMI1640 medium containing 10% FBS, 1% penicillin/streptomycin/amphotericin B, essential amino acids, and pyruvic acid and containing a test compound dissolved in DMSO and 2 μg/mL CD28 was added at 100 μL/well to T cell Activation Plate Anti-Human CD3 96-well plate (manufactured by Becton, Dickinson and Company), and subsequently, a PBMC suspension prepared such that the number of cells was 2×10^6 cells/mL was added thereto at 100 μL/well (final DMSO concentration: 0.1%). A RPMI1640 medium containing 10% FBS and containing 0.1% DMSO and 2 μg/mL CD28 was similarly added to wells not supplemented with the test compound. After culture for 2 days in a carbon dioxide incubator, the culture supernatant was collected. The collected culture supernatant was stored at −20° C. until IL-2 content measurement.
In the measurement of an L-2 content in the culture supernatant, a sandwich ELISA kit (Quantikine Human IL-2, manufactured by R&D Systems, Inc.) was used. The L-2 content of each sample was calculated from the calibration curve of Standard IL-2 included in the kit. […] A test compound concentration necessary for inhibiting 50% of L-2 production (IC50 value) was calculated from the concentration of the added test compound and the rate of inhibition of IL-2 production by the test compound by using EXSUS (version 8.1.0, manufactured by CAC Exicare Corp.).

The test system of test [2] is uterus cancer cell line C-33A. Put plainly: Various human cancer cell growth inhibition test: C-33A. The conditions noted are these: ATPlite, read-out: GI50 value (concentration necessary for inhibiting 50% of cell growth). It is filed as cell-based. The source says:
(§1) A breast cancer cell line BT-549 (obtained from American Type Culture Collection (ATCC)), a uterus cancer cell line C-33A (obtained from ATCC), an ovary cancer cell line PA-1 (obtained from ATCC), a large-cell lung cancer cell line NCI-H460 (obtained from ATCC), a small-cell lung cancer cell line NCI-H82 (obtained from ATCC), a kidney cancer cell line ACHN (obtained from ATCC), a pancreatic cancer cell line BxPC-3 (obtained from ATCC), a malignant melanoma cell line A375 (obtained from ATCC), a throat cancer cell line FaDu (obtained from ATCC), a medulloblastoma cell line Daoy (obtained from ATCC), a cutaneous epithelioid sarcoma cell line VA-ES-BJ (obtained from ATCC), a rhabdomyosarcoma cell line A-204 (obtained from ATCC), a prostate cancer cell line DU145 (obtained from ATCC), a bladder cancer cell line T24 (obtained from ATCC), a lymphoma cell line SR (obtained from ATCC), a neuroblastoma cell line SH-SY5Y (obtained from DS Pharma Biomedical Co., Ltd.), a liver cancer cell line HepG2 (obtained from DS Pharma Biomedical Co., Ltd.), a stomach cancer cell line HGC-27 (obtained from DS Pharma Biomedical Co., Ltd.), and a multiple myeloma cell line NCI-H929 (obtained from DS Pharma Biomedical Co., Ltd.) were used as human cancer cell lines.
(§2) Each cell line was cultured in a cell culture medium recommended by ATCC or DS Pharma Biomedical Co., Ltd. and inoculated at 0.3 to 5.0×10^3 cells/well to a 96-well plate. The cells were cultured overnight in a carbon dioxide incubator of 37° C. containing 5% carbon dioxide. The medium was replaced with a fresh medium on the next day, then replaced with a mixed solution of a DMSO solution of a test compound with varying concentrations and a culture medium (final DMSO concentration: 0.1%), and left standing in a carbon dioxide incubator (day 0). IV-361, IV-379, IV-3, IV-215, IV-299, IV-669, IV-1049, and palbociclib (for comparison) were used as test compounds. For a control group, DMSO was added instead of the DMSO solution of the test compound to a cell culture medium (final DMSO concentration: 0.1%).
(§3) After culture for a predetermined period, the ATP activity of BT-549, C-33A, PA-1, NCI-H460, NCI-H82, ACHN, BxPC-3, A375, FaDu, Daoy, VA-ES-BJ, A-204, DU145, T24, and SR was measured by using ATPlite (manufactured by PerkinElmer, Inc.). The ATP activity of SH-SY5Y, HepG2, HGC-27, and NCI-H929 was measured by using CellTiter-Glo (manufactured by Promega Corp.).
(§4) The rate of inhibition of cell growth (%) was calculated according to the expression given below. Specifically, in the case where the difference between the ATP activity before culture (day 0) and the ATP activity after culture in the test compound-administered group is the same as the difference between the ATP activity before culture (day 0) and the ATP activity after culture in the control group, the rate of inhibition of cell growth is 0%. Rate of inhibition of cell growth=(1−((ATP activity of the test compound-administered group after culture)−(ATP activity of the test compound-administered group on day 0))/((ATP activity of the control group after culture)−(ATP activity of the control group on day 0)))×100
(§5) The concentration of the test compound necessary for inhibiting 50% of cell growth (GI50 value) was calculated by using EXSUS (version 8.1.0, manufactured by CAC Exicare Corp.).

Test [3] deals with ovary cancer cell line PA-1. Nature of the test: Various human cancer cell growth inhibition test: PA-1. Conditions: ATPlite, read-out: GI50 value (concentration necessary for inhibiting 50% of cell growth). The class given is cell-based.
Text: as §1, §2, §3, §4, §5

Test [4] concerns prostate cancer cell line DU145. Put plainly: Various human cancer cell growth inhibition test: DU145. The class given is cell-based. Conditions: DU 145, ATPlite, read-out: GI50 value (concentration necessary for inhibiting 50% of cell growth).
Text: as §1, §2, §3, §4, §5

The test system of test [5] is liver cancer cell line HepG2. Put plainly: Various human cancer cell growth inhibition test: HepG2. The class given is cell-based. Conditions: CellTiter-Glo, read-out: GI50 value (concentration necessary for inhibiting 50% of cell growth).
Text: as §1, §2, §3, §4, §5

For test [6], the system named is multiple myeloma cell line NCI-H929. Put plainly: Various human cancer cell growth inhibition test: NCI-H929. It is filed as cell-based. The conditions noted are these: CellTiter-Glo, read-out: GI50 value (concentration necessary for inhibiting 50% of cell growth).
Text: as §1, §2, §3, §4, §5

The subject of test [7] is mouse imiquimod-induced psoriasis model. Nature of the test: Ear thickening suppression test using mouse imiquimod-induced psoriasis model. It is filed as in vivo. Conditions: topical, application of a 0.01% solution in methanol, female BALB/c mice, read-out: rate of inhibition of increase in ear thickness. How it is done: An imiquimod-induced psoriasis model test was carried out by modifying the method of Leslie van der Fits et al. (J. Immunol. 182, 5836 (2009)).
Female BALB/c mice (supplied by Charles River Laboratories Japan, Inc.) were used as laboratory animals. On the start day of the test, the thicknesses of the right auricles of the mice were measured with a thickness gauge (manufactured by TECLOCK Corp.). A test compound or a solvent was applied or orally administered thereto, and after a certain time, a certain amount of Beselna Cream 5% (containing 5% imiquimod, manufactured by Mochida Pharmaceutical Co., Ltd.) was applied to the insides of the right auricles. The test compound or solvent application or oral administration and the imiquimod application were carried out for a certain period, and the thicknesses of the right auricles were measured again on the final day. The thicknesses of the right auricles were compared between the solvent-administered group and the test compound group, and the rate of inhibition was calculated.

Setting [8] is: human PBMC, CD3/CD28 stimulation, culture for 2 days, ELISA.

pIC50: −log10 of the molar value. Read-outs that look alike come from different tables or passages of the source. A value given as a limit tells only on which side of the number the result lay.

For `CC1(C)c2[nH]nc(NC(=O)C3([Si](C)(C)C)CCC3)c2CN1C(=O)Nc1ccccc1F` [IV-3, N-(2-Fluorophenyl)-6,6-dimethyl-3-[1-(trimethylsilyl)cyclobutanecarboxamido]-4,6-dihydropyrrolo[3,4-c]pyrazole-5(1H)-carboxamide], the pIC50 in test [1] (setting [8]) is at least 7.00. Moreover, the GI50 is below 300 nM in test [2]; below 300 nM in test [3]; below 300 nM in test [4]; 300 to 1000 nM in test [5]; below 300 nM in test [6].

As for `Cc1ccccc1NC(=O)N1Cc2c(NC(=O)C3([Si](C)(C)C)CCC3)n[nH]c2C1(C)C` [IV-21, 6,6-Dimethyl-N-(o-tolyl)-3-[1-(trimethylsilyl)cyclobutanecarboxamido]-4,6-dihydropyrrolo[3,4-c]pyrazole-5(1H)-carboxamide], the negative logarithm of the IC50 (pIC50) in test [1] (setting [8]) is at least 7.00.

Turning to `CC1(C)c2[nH]nc(NC(=O)C3([Si](C)(C)C)CCC3)c2CN1C(=O)Nc1c(F)cccc1Cl` [IV-113, N-(2-Chloro-6-fluorophenyl)-6,6-dimethyl-3-[1-(trimethylsilyl)cyclobutanecarboxamido]-4,6-dihydropyrrolo[3,4-c]pyrazole-5(1H)-carboxamide], the negative-log IC50 (pIC50) in test [1] (Homo sapiens, PBMC) is at least 7.00.

For the molecule `Cc1ccc(F)c(NC(=O)N2Cc3c(NC(=O)C4([Si](C)(C)C)CCC4)n[nH]c3C2(C)C)c1` [IV-127, N-(2-Fluoro-5-methylphenyl)-6,6-dimethyl-3-[1-(trimethylsilyl)cyclobutanecarboxamido]-4,6-dihydropyrrolo[3,4-c]pyrazole-5 (1H)-carboxamide], the pIC50 in test [1] (setting [8]) is at least 7.00.

As to `Cc1cccc(F)c1NC(=O)N1Cc2c(NC(=O)C3([Si](C)(C)C)CCC3)n[nH]c2C1(C)C` [IV-129, N-(2-Fluoro-6-methylphenyl)-6,6-dimethyl-3-[1-(trimethylsilyl)cyclobutanecarboxamido]-4,6-dihydropyrrolo[3,4-c]pyrazole-5 (1H)-carboxamide], the inhibition in vivo at 0.01 % in test [7] is at least 50%.

Turning to `CCc1cccc(F)c1NC(=O)N1Cc2c(NC(=O)C3([Si](C)(C)C)CCC3)n[nH]c2C1(C)C` [IV-137, N-(2-Ethyl-6-fluorophenyl)-6,6-dimethyl-3-[1-(trimethylsilyl)cyclobutanecarboxamido]-4,6-dihydropyrrolo[3,4-c]pyrazole-5(1H)-carboxamide], the inhibition in vivo at 0.01 % in test [7] was at least 50%.

For `COc1cccc(F)c1NC(=O)N1Cc2c(NC(=O)C3([Si](C)(C)C)CCC3)n[nH]c2C1(C)C` [IV-161, N-(2-Fluoro-6-methoxyphenyl)-6,6-dimethyl-3-[1-(trimethylsilyl)cyclobutanecarboxamido]-4,6-dihydropyrrolo[3,4-c]pyrazole-5(1H)-carboxamide], the negative logarithm of the IC50 (pIC50) in test [1] (setting [8]) is at least 7.00.

On to `CC1(C)c2[nH]nc(NC(=O)C3([Si](C)(C)C)CCC3)c2CN1C(=O)Nc1c(F)cccc1OC(F)F` [IV-169, N-[2-(Difluoromethoxy)-6-fluorophenyl]-6,6-dimethyl-3-[1-(trimethylsilyl)cyclobutanecarboxamido]-4,6-dihydropyrrolo[3,4-c]pyrazole-5(1H)-carboxamide], for which the inhibition in vivo at 0.01 % in test [7] was at least 50%.

As for `CC1(C)c2[nH]nc(NC(=O)C3([Si](C)(C)C)CCC3)c2CN1C(=O)Nc1c(Cl)cccc1Cl` [IV-199, N-(2,6-Dichlorophenyl)-6,6-dimethyl-3-[1-(trimethylsilyl)cyclobutanecarboxamido]-4,6-dihydropyrrolo[3,4-c]pyrazole-5(1H)-carboxamide], in test [7], the inhibition in vivo at 0.01 % is at least 50%.

With `COc1cccc(Cl)c1NC(=O)N1Cc2c(NC(=O)C3([Si](C)(C)C)CCC3)n[nH]c2C1(C)C` [IV-247, N-(2-Chloro-6-methoxyphenyl)-6,6-dimethyl-3-[1-(trimethylsilyl)cyclobutanecarboxamido]-4,6-dihydropyrrolo[3,4-c]pyrazole-5(1H)-carboxamide], the inhibition in vivo at 0.01 % in test [7] is at least 50%.

Consider `Cc1ccc(F)cc1NC(=O)N1Cc2c(NC(=O)C3([Si](C)(C)C)CCC3)n[nH]c2C1(C)C` [IV-361, N-(5-Fluoro-2-methylphenyl)-6,6-dimethyl-3-[1-(trimethylsilyl)cyclobutanecarboxamido]-4,6-dihydropyrrolo[3,4-c]pyrazole-5 (1H)-carboxamide], for which, in test [1] (setting [8]), the negative-log IC50 (pIC50) was at least 7.00. Moreover, the GI50 in test [2] was below 300 nM; in test [3], below 300 nM; in test [4], below 300 nM; in test [5], 300 to 1000 nM; in test [6], below 300 nM.

Take `Cc1ccc(C)c(NC(=O)N2Cc3c(NC(=O)C4([Si](C)(C)C)CCC4)n[nH]c3C2(C)C)c1` [IV-379, N-(2,5-Dimethylphenyl)-6,6-dimethyl-3-[1-(trimethylsilyl)cyclobutanecarboxamido]-4,6-dihydropyrrolo[3,4-c]pyrazole-5(1H)-carboxamide]: in test [1] (setting [8]), the negative logarithm of the IC50 (pIC50) is at least 7.00. The GI50 in test [2], in test [3], in test [4], in test [5] and in test [6] was below 300 nM in each case.

`CCc1cccc(C)c1NC(=O)N1Cc2c(NC(=O)C3([Si](C)(C)C)CCC3)n[nH]c2C1(C)C` [IV-389, N-(2-Ethyl-6-methylphenyl)-6,6-dimethyl-3-[1-(trimethylsilyl)cyclobutanecarboxamido]-4,6-dihydropyrrolo[3,4-c]pyrazole-5 (1H)-carboxamide]: the inhibition in vivo at 0.01 % in test [7] is at least 50%.

The values above are taken from patent publication US10894798B2, “Substituted dihydropyrrolopyrazole derivative” (UBE INDUSTRIES, LTD., priority 2015, dated 2021).
